# Target: Aldo-keto reductase family 1 member A1 (Bos taurus)
# Experiment: Evaluated for inhibition of Aldehyde reductase 1
row,IC50 [µM],Compound
1,295,"Cc1cc(C)c2c(c1)-c1nn(CC(=O)O)c(=O)cc1CC2 [(7,9-Dimethyl-3-oxo-5,6-dihydro-3H-benzo[h]cinnolin-2-yl)-acetic acid]"
2,289,"Cc1cc(C)c2c(c1)-c1nn(CCC(=O)O)c(=O)cc1CC2 [3-(7,9-Dimethyl-3-oxo-5,6-dihydro-3H-benzo[h]cinnolin-2-yl)-propionic acid]"
3,92.6,"O=C(O)CCCn1nc2c(cc1=O)CCc1ccccc1-2 [4-(3-Oxo-5,6-dihydro-3H-benzo[h]cinnolin-2-yl)-butyric acid]"
4,107,"O=C(O)Cn1nc2c(cc1=O)Cc1ccccc1-2 [(3-Oxo-3,5-dihydro-indeno[1,2-c]pyridazin-2-yl)-acetic acid]"
5,156,"O=C(O)Cn1nc2c(cc1=O)CCc1ccccc1-2 [(3-Oxo-5,6-dihydro-3H-benzo[h]cinnolin-2-yl)-acetic acid]"
6,136,"O=C(O)Cn1nc2c(c(C(=O)O)c1=O)Cc1ccccc1-2 [2-Carboxymethyl-3-oxo-3,5-dihydro-2H-indeno[1,2-c]pyridazine-4-carboxylic acid]"
7,161,"O=C(O)Cn1nc2c(c(C(=O)O)c1=O)CCc1ccccc1-2 [2-Carboxymethyl-3-oxo-2,3,5,6-tetrahydro-benzo[h]cinnoline-4-carboxylic acid]"
